These results are taken from patent US6893821B2, “Agents that modulate DNA-PK activity and methods of use thereof” (The Regents of the University of California, priority 2000, dated 2005).

The target of data set [1] is T1, Ku antigen (Ku70/Ku80 heterodimer) (Mus musculus, UniProt P23475+P27641).
T1 construct: from tissue; host or cells: mouse liver (BALB/c)
The experiment in a line: EMSA inhibition study: cold ODN vs [32P]-labeled ds-ISS-ODN binding to Ku (affinity column fraction 20). To be noted: for displacement of the interaction of [32P]-labeled ds-ISS-ODN with Ku: unlabeled ODN 0.1, 0.2 and 0.4 μg, 10 μg of fraction 20. As for the experimental part:
Purification of the ISS binding protein was accomplished by sequential ion exchange, heparin and ISS-ODN affinity chromatography, as follows. Due to the relative small tissue weight per spleen, liver lysate was used after confirming its reactivity to in vivo ISS injection, as described above. Crude liver extracts from 220 mice (BALB/c, Jackson Lab., Bar Harbour, Me.) or 15 New Zealand White rabbits (Simunek, Vista, Calif.) were prepared in homogenization buffer (20 mM HEPES, pH 7.6, 250 mM KCl, 0.1 mM EDTA, 0.5 mM EGTA, 20% glycerol) with 250 mM KCl and protease and phosphatase inhibitors and then centrifuged at 100,000×g for 1.5 hours at 4° C. The supernatant (400 ml) was filtered and loaded onto a Porous 20 QE column (17 ml, Pharmacia). Two μl (10 μg) of each fraction were used in a gel retardation assay to identify the location of proteins containing DNA binding activity using [^32P]-labeled ds-ISS-ODN as a probe. Fractions containing ISS-ODN binding activity were pooled (450 ml), buffered exchanged to low salt (50 mM KCl) and loaded onto a Heparin column (2 ml). The active fractions were subsequently loaded onto a 2 ml ds-ISS-ODN affinity column [CNBr-activated Sepharose 4B (Pharmacia) coupled to 320 μg of ds-ISS-ODNs with the sequence 5′-[…]-3′; SEQ ID NO: 21]. The column was washed with 8 ml of homogenization buffer containing 50 mM KCl and the bound proteins were eluted with a 20 ml linear gradient of 50 mM to 1.55 M KCl. One-ml fractions were collected and 2 μl of each were used to test for DNA binding activity. The active fractions were concentrated, separated by SDS-PAGE and stained with Coomassie Blue. The appearance of two bands with estimated molecular weights of 70 KDa and 80 KDa correlated with the DNA binding activity. Sequence analysis (Harvard Microsequencing Facility) of peptides derived from the two bands identified Ku70 and Ku80, respectively.
Mouse liver extracts were purified through anion (QE), heparin and ISS-based affinity chromatography, as described above. Two μl of each fraction (10 μg) were incubated with [^32 P]-labeled ds-ISS-ODN at 4° C. for 30 minutes. The samples were separated on a 5% acrylamide gel and the protein-DNA complexes were detected by autoradiography. […] The active fractions were separated by sodium dodecyl sulfate-polyacrylamide gel electrophoresis (SDS-PAGE), stained with Coomassie blue and micro-sequenced.
To verify the binding specificity of the Ku protein to ISS-ODN, inhibition studies were performed using cold ss or ds ISS or mutated (M, i.e., control) ODNs. Ten μg of fraction 20 from the affinity column were incubated with [^32P]-labeled ISS-ODN in the presence of unlabeled (0.1, 0.2 and 0.4 μg, respectively) ss-ISS-ODN (lanes 3-5), ds-ISS-ODN (lanes 7-9), ss-M-ODN (lanes 11-13) or ds-M-ODN (lanes 15-17).

The subject of data set [2] is bone marrow derived macrophages (BMDM). The experiment in a line: IL-6 and IL-12 levels in BMDM culture supernatants by ELISA. To be noted: BMDM. It counts as cell-based, mice. As for the experimental part:
Ku70^−/− and Ku80^−/− mice and their wild-type (wt) control on the 129 genetic background were generated by Dr. G. Li and bred at Memorial Sloan-Kettering Cancer Center (MSKCC), New York, N.Y. BMDM from wt, Ku70^−/− and Ku80^−/− mice (MSKCC) were prepared as was previously published (Martin-Orozco et al. (1999) Int. Immunol. 11:1111), and maintained in DMEM with 10% FBS, antibiotics and 20% L-cell medium and cultured for about 10 days to allow them to mature. BMDM were seeded (2.5×10^5/well in triplicate) on 96-well plates and treated with LPS (10 μg/ml), ISS-ODN (5 μg/ml) or M-ODN (5 μg/ml).
BMDM (2.5×10^5/well) from wt, or Ku70^−/− and Ku80^−/− mice were treated with LPS (1 μg/ml), ISS-ODN (5 μg/ml) or M-ODN (5 μg/ml) for 24 hours. IL-6 (A) or IL-12 (B) levels in the supernatants were determined by ELISA. Results are means±S.D, of 5 separate experiments for wt and Ku70^−/− and 3 separate experiments for Ku80^−/− mice. (C) BMDM were incubated with LPS (10 μg/ml) or ISS-ODN (5 μg/ml) for 6.5 hours. Total RNA was isolated and analyzed for the presence of IL-6, IL-12 and GAPDH messages by a Northern blot assay, as described in Example 1. Results are means±S.D. of 5 separate experiments for wt and Ku70^−/− and 3 separate experiments for Ku80^−/− mice.
DNA-PKcs^−/− and their wt control mice on the 129 genetic background were generated by Dr. G. C. Li and bred at Memorial Sloan-Kettering Cancer Center, New York, N.Y. IKKβ^−/− Tnfr1^−/− mice were generated by Drs. Z-W Li and Karin M. ATM^−/− mice on the C57BL/6 background were generated and bred by Dr. Y. Xu (UCSD) as was previously described (Xu et al.(1996) Genes Dev. 10:2411-2422) while their wild-type (wt) control were purchased from Jackson Laboratories (Bar Harbor, Me.). BMDMs from wt, DNA-PKcs^−/− mice, IKKβ^−/− Tnfr1^−/− and ATM^−/− mice were prepared as was previously published (Martin-Orozco et al. (1999) Intl. Immunol. 11:1111-1118), maintained in DMEM with 10% FBS, antibiotics and 20% L-cell medium and cultured for 7-10 days to allow them to mature. Prior to use BMDM were seeded (2.5×10^5/well in triplicate) in 96-well plates and than treated with LPS (1 μg/ml), ISS-ODN (5 μg/ml) or M-ODN (5 μg/ml), po-ISS-ODN (10 μg/ml) or po-ds-ISS-ODN (10 μg/ml), LPS-free, ultra pure bacterial DNA (E. coli, Sigma) (15 μg/ml) or methylated bacterial DNA or LPS-free, ultra pure calf thymus DNA (Sigma) (15 μg/ml). Methylation of bacterial DNA was performed by SssI methylase (Biolab, Boston, Mass.) (15 μg/ml) following manufacturer's instruction. Where indicated the PI3K inhibitor wortmannin (Wm), at various concentrations, was added to ISS-ODN or LPS stimulated BMDMs. After 24 hours in culture, the supernatants were collected and assayed for IL-6 and IL-12 levels by ELISA kits (PharMingen, San Diego, Calif.).

For the next data set, the target named is T2, DNA-PK (Homo sapiens, UniProt P12956+P13010+P78527).
T2 construct: purchased Promega
Briefly: In vitro DNA-PK phosphorylation assay (affinity-purified DNA-PK, GST-p53 (1-70) substrate). It counts as biochemical. The note with it: 30° C., 30 minutes; ps-ss ODNs 0-1, po-ISS-ODN 20-100, po-ds-ISS-ODN 0-10, genomic DNAs 1-5 ng/reaction. As for the experimental part:
The in vitro DNA-PK phosphorylation assay was performed according to Hammarsten et al. (2000), supra, with modification. Briefly, affinity-purified DNA-PK (Promega, Mo.) was incubated with various DNA preparations (described below), 0.5 μg of GST-p53 (1-70) and 3.3 μCi of γ-^32p-ATP in a 20 μl reaction buffer (10 mM Tris-Cl, 5 mM MgCl2, 0.3 mM EDTA and 10 μM ATP) at 30° C. for 30 minutes. The reaction was stopped by addition of 4× loading buffer. The samples were boiled, loaded on 9% SDS-PAGE, transferred onto a PVDF membrane and visualized by autoradiography.
The ODNs (ps-ss) used include an ISS-ODN with an active CpG motif (AACGTT), a methylated ISS-ODN at the ^5C of the CpG dinucleotide (AA*CGTT) and various control ODNs. These ODNs were incubated at concentrations of 0, 0.1, 0.3, or 1 ng/reaction. The po-ISS-ODN was incubated at concentration of 20, 50 or 100 ng/reaction. The po-ds-ISS-ODN was incubated at concentration of 0, 0.5, 1, 2, 5 or 10 ng/reaction. The bacterial or calf thymus DNAs were each incubated at concentration of 1, 2 or 5 ng/reaction. Electrophoretic gel mobility shift assay (EMSA) was performed as previously described. Chu et al. (1999) Immunity 11:721-731; and Li et al., 1999, supra). In vitro IKK kinase assays were performed using purified IKK derived from Sf9 insect cell lysates as was previously described. Zandi et al. (1998) Science 281:1360-1363.

Another data set deals with IκB kinase (IKK) complex. The experiment in a line: IKK kinase assay on IKK complex immunoprecipitated from treated BMDM (IκBα N-terminus substrate). The data set is classed as cell-based, mice. The protocol:
Kinase assays and immunoblotting were performed according to Li et al. ((1999) J. Exp. Med. 189:1839-1845). Briefly, BMDM were treated with ISS-ODN (5 μg/ml), M-ODN (5 μg/ml) on ps and po backbones as indicated, LPS-free bacterial DNA or methylated bacterial DNA (5 μg/ml), LPS-free calf thymus DNA (5 μg/ml), LPS (10 μg/ml) or TNFα (10 ng/ml) for the indicated time periods. Cell lysates were prepared and normalized by immunoblotting (IB) with anti-IKKα polyclonal antibodies (Santa Cruz, Santa Cruz Biotech Inc., Calif.), anti-IKKβ polyclonal antbodies (Santa Cruz) or anti-DNA-PKcs monoclonal antibodies (NeoMarker, Calif.). IκB kinase (IKK) complex or DNA-PK complex from 100 μg of the lysates were immunoprecipitated by anti-IKKα or by anti-DNA-PKcs antibodies. The kinase activities (KA) were determined by a kinase assay using the N-terminus of IκBα (for IKK) or the N-terminus of p53 (for DNA-PK) as a substrate as previously described. Wang et al. (1992) Proc. Natl. Acad. Sci. USA 89:4231-4235; Li et al.(1999), supra; and Hammarsten et al. (2000) J. Biol. Chem. 275:1541-1545.

Data set [3] has as its system IL-6, IL-12 message in liver. The experiment in a line: RT-PCR for IL-6 and IL-12 message in livers of mice injected i.v. with ODN. The data set is classed as in vivo. To be noted: mice i.v. 200 μl (1 μg/μl in PBS) of ss or ds ODN; 2.5 hours.

“Also recorded” adds a separate entry of the source.

T1 sequence (P23475 2-608 limits assumed): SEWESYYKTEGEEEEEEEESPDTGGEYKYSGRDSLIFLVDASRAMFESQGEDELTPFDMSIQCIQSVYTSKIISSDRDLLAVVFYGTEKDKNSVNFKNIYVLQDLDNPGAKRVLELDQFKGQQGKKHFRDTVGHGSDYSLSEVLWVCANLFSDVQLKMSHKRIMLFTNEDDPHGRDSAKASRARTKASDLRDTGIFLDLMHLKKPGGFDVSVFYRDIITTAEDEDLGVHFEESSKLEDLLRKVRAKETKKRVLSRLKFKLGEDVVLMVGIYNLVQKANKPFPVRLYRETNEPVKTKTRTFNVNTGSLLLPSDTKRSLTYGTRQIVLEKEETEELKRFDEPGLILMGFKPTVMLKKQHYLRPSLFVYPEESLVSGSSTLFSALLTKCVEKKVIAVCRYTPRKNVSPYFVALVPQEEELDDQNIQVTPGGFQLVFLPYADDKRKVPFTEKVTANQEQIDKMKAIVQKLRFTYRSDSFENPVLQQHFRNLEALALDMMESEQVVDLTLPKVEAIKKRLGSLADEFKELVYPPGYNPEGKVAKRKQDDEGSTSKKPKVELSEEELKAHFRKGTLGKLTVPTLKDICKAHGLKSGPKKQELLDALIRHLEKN
T1 sequence (P27641 whole entry): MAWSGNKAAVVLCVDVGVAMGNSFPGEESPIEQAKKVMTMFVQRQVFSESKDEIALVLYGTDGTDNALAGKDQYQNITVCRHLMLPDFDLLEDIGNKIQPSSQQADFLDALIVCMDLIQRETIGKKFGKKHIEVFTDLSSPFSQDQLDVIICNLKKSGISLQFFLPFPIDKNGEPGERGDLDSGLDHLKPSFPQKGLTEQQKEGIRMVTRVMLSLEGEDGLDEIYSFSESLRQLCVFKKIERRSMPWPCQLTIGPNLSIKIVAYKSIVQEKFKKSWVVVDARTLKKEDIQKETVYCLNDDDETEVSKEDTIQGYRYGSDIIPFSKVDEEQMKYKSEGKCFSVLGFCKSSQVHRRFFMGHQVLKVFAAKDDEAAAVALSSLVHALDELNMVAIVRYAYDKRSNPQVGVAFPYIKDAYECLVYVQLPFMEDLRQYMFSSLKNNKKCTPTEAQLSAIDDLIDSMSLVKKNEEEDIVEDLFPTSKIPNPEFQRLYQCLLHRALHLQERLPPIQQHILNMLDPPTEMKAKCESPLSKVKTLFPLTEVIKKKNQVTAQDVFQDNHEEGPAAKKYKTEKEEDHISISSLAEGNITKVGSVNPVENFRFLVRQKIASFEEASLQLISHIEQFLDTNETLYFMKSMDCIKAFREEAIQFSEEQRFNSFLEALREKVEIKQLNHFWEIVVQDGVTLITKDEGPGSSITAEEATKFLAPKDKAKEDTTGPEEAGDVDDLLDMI

Turning to “5′-TGACTGTGAACGTTCGAGATGA-3′ [ds-ISS-ODN]”, in data set [1], the “displacement of the interaction of [32P]-labeled ds-ISS-ODN with Ku” value is listed as “displaced the interaction”.
As to `O=c1cc(N2CCOCC2)oc2c(-c3ccccc3)cccc12` [Ly, Ly294002, reference compound], the “inhibition of LPS-induced secretion of IL-6 and IL-12” value in data set [2] was “did not inhibit”.
Turning to “5′-TGACTGTGAA*CGTTAGAGATGA-3′ (DNA TGACTGTGAACGTTAGAGATGA; 5-methylcytosine, chemistry not fully specified) [Methylated ISS-ODN, *C denotes 5-methyl C, reference compound]”, in the data set with DNA-PK, the “DNA-PK activity in vitro (phosphorylation of the N-terminal portion of p53)” value was “weaker DNA-PK activators than their unmethylated counterparts”.
For `COC[C@H]1OC(=O)c2coc3c2[C@@]1(C)C1=C(C3=O)[C@@H]2CCC(=O)[C@@]2(C)C[C@H]1OC(C)=O` [Wm, wortmannin, reference compound], the “effect on IKK activation by TNFα” value in the data set on IκB kinase (IKK) complex (Wm at 1000 nM) is “no effect”. Moreover, the “inhibition of LPS-induced secretion of IL-6 and IL-12” value in data set [2] was “did not inhibit”.
Take “5′-TGACTGTGAACCTTAGAGATGA-3′ [ds-M-ODN, reference compound]”: the “displacement of the interaction of [32P]-labeled ds-ISS-ODN with Ku” value in data set [1] is listed as “did not have any significant effect”.
Take “5′-TGACTGTGAAGGTTAGAGATGA-3′ [M-ODN, reference compound]”: in data set [3], the “IL-6 and IL-12 message in liver (RT-PCR)” value was “did not display any immune stimulation; also recorded: lack of induction”. The IKK activation result with IκB kinase (IKK) complex (wt BMDM) is reported as “little increase in IKK activity”. Further, the “IKK activation, concentration series” value with IκB kinase (IKK) complex (wt BMDM (FIG. 5B)) is listed as “little IKK activation”. Besides, the “interaction of Ku with ODN” value in data set [1] is recorded as “lack of interaction”.
As to TNFα [reference compound], the IKK activation entry with IκB kinase (IKK) complex (DNA-PKcs-/- BMDM as compared to wt) is “fully responsive”.
